# Measured values from patent US20240392241A1, “METHOD FOR PRODUCING CELL MASS INCLUDING PITUITARY TISSUE AND CELL MASS” (SUMITOMO CHEMICAL COMPANY, LIMITED, priority 2021, published 2024).
# Assays:
# Type in all cases: cell-based
# [1] = tested on: cell mass derived from human iPS cell line 201B7; test: ACTH concentration in culture medium of cell masses by ELISA (Example 4); settings: for ACTH concentration in the medium compared with JNK inhibitor non-addition conditions: 1 μM from day 0; for ACTH concentration in the medium vs non-addition condition: 3 μM
# Description: In Example 4, according to step shown in FIG. 4A, a cell population including cells that constitute pituitary tissue was produced. Specifically, the culture supernatant of a cell mass derived from human iPS cell line 201B7 prepared by the method described in Example 3 was collected over time, and the amount of ACTH secreted per cell mass was measured. As a specific measurement method, cell masses containing pituitary tissue were prepared under four conditions: from day 0 to day 30 of differentiation induction, conditions in which the JNK inhibitor JNK—IN-8 was added at 1 μM, 3 μM, or 10 μM, and no addition control. […] Thereafter, the cell masses prepared by adding 1 μM or 3 μM of JNK—IN-8 and the non-addition control were suspension cultured in a 10 cm dish with 20 ml of medium, and half of the medium was replaced every 3 to 4 days. The culture supernatant was collected before replacement of a half-volume of the medium on days 61, 103, 152, and 201 of differentiation induction, and frozen at −150° C. When all samples were collected, the ACTH concentration in the recovered medium was measured by the ELISA method used in clinical testing (testing outsourced to SRL, Ltd.). Based on the obtained ACTH concentration data (pg/mL), the total number of cell masses at the time of sampling and the total amount of culture medium were corrected to the ACTH concentration under the conditions where 20 cell masses were cultured in 20 ml of medium, and shown in a graph. A similar experiment was performed twice.
# As a result, the ACTH concentration in the medium was about 5 times as high on day 61 of differentiation induction, about 2 times as high on days 103 and 152 of differentiation induction, and about 1.3 times as high on day 201 of differentiation induction under the conditions in which 1 μM JNK—IN-8 was added from day 0 of differentiation induction, compared with the JNK inhibitor non-addition conditions. Under the conditions in which 3 μM JNK—IN-8 was added, the ACTH concentration in the medium was higher on days 61 and 103 of differentiation induction than that in the non-addition condition, but lower on days 152 and 201 of differentiation induction than that in the non-addition condition. From the above results, it was shown that the addition of a JNK inhibitor improves the ACTH secretory capacity per cell mass in differentiation induction of pituitary tissue from pluripotent stem cells, and that the concentration of the JNK inhibitor to be added is preferably not more than 3 μM (FIG. 4B).
# [2] = tested on: human iPS cells (201B7 strain); test: Immunostaining of ACTH and E-cadherin in cell aggregates on day 103 (Example 7)
# Description: According to the steps shown in FIG. 10A, suspension culturing was performed using human iPS cells (201B7 strain) in the same manner as in Example 4, and continued until day 103. Using the obtained cell aggregates, cryosections were prepared in the same manner as in Example 3. The obtained sections were subjected to immunostaining using anti-ACTH antibody (manufactured by Fitzgerald Industries) and anti-E-cadherin antibody (manufactured by Takara Bio Inc.), and the nucleus was stained with DAPI. […] The scale bar at the bottom right of FIG. 10B indicates 200 μm.
# [3] = tested on: human iPS cells (201B7 strain); test: Immunostaining of Pitx1, Lhx3 and E-cadherin in cell aggregates on day 29 (Example 3); settings: 1 μM from day 0
# Description: In Example 3, according to step shown in FIG. 3A, a cell population including cells that constitute pituitary tissue was produced. Specifically, human iPS cells (201B7 strain, obtained from Kyoto University) were cultured under feeder-free conditions according to the method described in Scientific Reports, 4, 3594 (2014). As the feeder-free medium, StemFit medium was used and, as the feeder-free scaffold, Laminin 511-E8 was used.
# The aforementioned subconfluent human iPS cells were subjected to cell dispersion treatment using TrypLE Select, and further dispersed to single cells by pipetting operation. Thereafter, the aforementioned […] dispersed into single cells were suspended in 100 μl of a serum-free medium at 9000 cells per well of a non-cell-adhesive 96-well culture plate, and suspension cultured under the conditions of 37° C., 5% CO2. […]
# The aforementioned cell aggregates on the 29th day after the start of differentiation induction were each fixed with 4% para-formaldehyde, and cryosections were prepared. […] After the primary antibody reaction, detection was performed using a secondary antibody (manufactured by Life Technologies) fluorescence-labeled with Alexa488, 555, and 647. […]
compound,measurement,setting,value
"Cc1cc(NC(=O)c2cccc(NC(=O)/C=C/CN(C)C)c2)ccc1Nc1nccc(-c2cccnc2)n1 [JNK—IN-8, (E)-3-(4-(dimethylamino)but-2-enamido)-N-(3-methyl-4-((4-(pyridin-3-yl)pyrimidin-2-yl)amino)phenyl)benzamide]",ACTH concentration in the medium compared with JNK inhibitor non-addition conditions,[1]; day 61 of differentiation induction,about 5 times
same,ACTH concentration in the medium compared with JNK inhibitor non-addition conditions,[1]; day 201 of differentiation induction,about 1.3 times
same,ACTH concentration in the medium compared with JNK inhibitor non-addition conditions,[1]; days 103 and 152 of differentiation induction,about 2 times
same,ACTH concentration in the medium vs non-addition condition,[1]; days 61 and 103 of differentiation induction,higher
same,ACTH concentration in the medium vs non-addition condition,[1]; days 152 and 201 of differentiation induction,lower
same,state of cell mass,[1]; 10 μM added from day 0 to day 30 of differentiation induction,collapse of cell mass
same,proportion of ACTH-positive cells in the entire cell aggregate,"[2]; JNKi(+), mean±SEM, n=8-12",42.2±4.4 % of total cells
same,proportion of E-cadherin-positive cells in the layer covering the surface of cell aggregates vs non-addition control,[2]; JNK—IN-8 added,higher
same,number of cells positive for Pitx1 and Lhx3 vs non-addition control,[3],higher
same,proportion of the surface of the cell mass covered with E-Cadherin-positive epithelial tissue vs non-addition control,[3],higher
